What was measured:
Kallikrein-1 = Kallikrein-1 (Homo sapiens, UniProt P06870); assay: Inhibition of human kallikrein 1
[1] = target: T1, Prostate-specific antigen (Homo sapiens, UniProt P07288); assay: Inhibition of human kallikrein 3
T1 sequence (P07288 whole entry): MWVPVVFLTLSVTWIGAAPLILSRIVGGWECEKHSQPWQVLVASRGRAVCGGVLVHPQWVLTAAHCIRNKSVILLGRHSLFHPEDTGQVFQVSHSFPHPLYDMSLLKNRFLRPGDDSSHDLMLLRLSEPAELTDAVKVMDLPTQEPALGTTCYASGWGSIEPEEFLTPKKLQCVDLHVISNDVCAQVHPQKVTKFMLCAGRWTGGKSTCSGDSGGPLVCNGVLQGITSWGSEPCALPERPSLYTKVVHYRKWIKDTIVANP

Plasma kallikrein = Plasma kallikrein (Homo sapiens, UniProt P03952); assay: Inhibition of plasma kallikrein
Sequence of Plasma kallikrein (P03952 20-390 limits assumed): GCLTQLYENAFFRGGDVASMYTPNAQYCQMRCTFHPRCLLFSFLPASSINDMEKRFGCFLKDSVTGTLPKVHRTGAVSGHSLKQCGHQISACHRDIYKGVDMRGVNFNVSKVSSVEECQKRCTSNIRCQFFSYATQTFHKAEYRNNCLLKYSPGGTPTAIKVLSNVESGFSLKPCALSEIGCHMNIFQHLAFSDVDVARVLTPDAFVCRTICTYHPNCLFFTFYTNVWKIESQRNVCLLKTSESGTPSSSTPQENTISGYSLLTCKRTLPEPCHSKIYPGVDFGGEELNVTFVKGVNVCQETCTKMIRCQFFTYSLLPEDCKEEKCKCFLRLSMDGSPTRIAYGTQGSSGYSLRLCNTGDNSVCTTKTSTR
Sequence of Plasma kallikrein (P03952 391-638 limits assumed): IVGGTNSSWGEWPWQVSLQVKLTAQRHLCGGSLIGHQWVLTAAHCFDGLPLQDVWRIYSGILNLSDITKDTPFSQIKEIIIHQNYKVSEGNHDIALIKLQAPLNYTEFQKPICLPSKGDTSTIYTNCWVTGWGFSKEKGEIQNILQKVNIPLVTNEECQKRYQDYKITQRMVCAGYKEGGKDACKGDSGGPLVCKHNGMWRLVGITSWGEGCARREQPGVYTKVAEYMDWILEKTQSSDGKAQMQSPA

Sequence of Kallikrein-1 (P06870 whole entry): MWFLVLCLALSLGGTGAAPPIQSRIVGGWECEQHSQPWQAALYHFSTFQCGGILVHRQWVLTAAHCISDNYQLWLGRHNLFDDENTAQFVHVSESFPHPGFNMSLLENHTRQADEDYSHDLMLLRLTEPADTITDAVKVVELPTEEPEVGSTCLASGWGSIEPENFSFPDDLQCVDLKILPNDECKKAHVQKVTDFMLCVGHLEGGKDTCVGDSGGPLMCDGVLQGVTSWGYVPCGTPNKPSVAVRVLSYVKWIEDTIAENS

Row | Structure (SMILES) | Ki (Kallikrein-1) | also measured
1 | N=C(N)c1cc(Br)c(OCCCCCOc2c(Br)cc(C(=N)N)cc2Br)c(Br)c1 | 810 nM | 
2 | N=C(N)c1ccc(OCc2ccc(COc3ccc(C(=N)N)cc3I)cc2)c(I)c1 | 31 nM | 
3 | O=C(OCc1ccccc1)c1cccc(OC(=O)N2C(=O)[C@@H](Cc3ccc(O)cc3)[C@H]2C(=O)OCc2ccccc2)c1 |  | IC50 [1]: 226 nM
4 | NC[C@H]1CC[C@H](C(=O)NC(Cc2ccc(Oc3ncccn3)cc2)C(=O)Nc2cccc(C(=O)O)c2)CC1 (some centres undefined) |  | IC50 (Plasma kallikrein): 710 nM
